Experimental findings from patent US8906928B2, “Substituted pyrazolo-pyrrolo-pyridine-dione compounds” (ArQule, Inc., priority 2009, dated 2014) are described below.

Common to all, as to type: cell-based
The test system of one experiment is MDA-MB. Put plainly: MTS assay (cell growth inhibition), MDA-MB. The settings on record: MDA-MB cells, 72 hours incubation with test compound; concentration not given. The procedure: (§1) Cells were maintained at 37° C., 5% CO2 in DMEM media supplemented with 1% fetal bovine serum, penicillin/streptomycin and fungizone (Invitrogen). Cells were seeded into 96-well tissue culture plates at 3000 per well and cultured at 37° C. for 18 hours. Test compounds were dissolved and diluted to 300× in DMSO then diluted 1:40 in DMEM. Cells were incubated with test compounds for 72 hours followed by incubation with tetrazolium compound (3-(4,5-dimethylthiazol-2-yl)-5-(3-carboxymethoxyphenyl)-2-(4-sulfophenyl)-2H-tetrazolium, inner salt; MTS) and the electron coupling reagent, phenazine methosulfate (PMS) for 4 hours. […] The ability of compounds to inhibit cell growth in this assay is correlated with the reduction of dehydrogenase enzyme activity found in metabolically active cells. The measurement of the absorbance of the formazan was assessed using an ENVISION™ (Perkin Elmer) microplate reader at 492 nm. The calculated IC50 value is the concentration of the test compound that causes a 50% decrease in the absorbance.

Another experiment concerns NCI-H1299. Put plainly: MTS assay (cell growth inhibition), NCI-H1299. The following applies: NCI-H1299 cells, 72 hours incubation with test compound; concentration not given. The procedure:
as §1
Background: Formazan colour is commonly taken as a measure of viable cells.

The test system of the next experiment is PACA-2. The experiment is described as follows: MTS assay (cell growth inhibition), PACA-2. The settings on record: PACA-2 cells, 72 hours incubation with test compound; concentration not given. The procedure:
as §1

The next experiment relates to DLD-1. The experiment is described as follows: MTS assay (cell growth inhibition), DLD-1. The settings on record: DLD-1 cells, 72 hours incubation with test compound; concentration not given. The procedure:
as §1

For another experiment, the system named is Kato III. The experiment is described as follows: MTS assay (cell growth inhibition), Kato III. The settings on record: Kato III cells, 72 hours incubation with test compound; concentration not given. The procedure: as §1
The next experiment has as its system PC-3. The experiment is described as follows: MTS assay (cell growth inhibition), PC-3. The following applies: PC-3 cells, 72 hours incubation with test compound; concentration not given. The procedure:
as §1

Consider `COc1c(C)cnc(CN2C(=O)c3cnc4[nH]ncc4c3C2=O)c1C` [Example 72, 7-[(4-methoxy-3,5-dimethylpyridin-2-yl)methyl]pyrazolo[3,4-b]pyrrolo[3,4-d]pyridine-6,8(3H,7H)-dione], for which, in the experiment on MDA-MB, the “MTS CELL KILL DATA (% INHIBITION) MDA-MB” value was “A (A = 80-100% INHIBITION)”. The “MTS CELL KILL DATA (% INHIBITION) NCI-H1299” value with NCI-H1299 is recorded as “C (C = <50% INHIBITION)”. Besides, in the experiment with PACA-2, the “MTS CELL KILL DATA (% INHIBITION) PACA-2” value is “C (C = <50% INHIBITION)”. For the same compound, the “MTS CELL KILL DATA (% INHIBITION) DLD-1” value with DLD-1 is given as “C (C = <50% INHIBITION)”. Moreover, in the experiment on Kato III, the “MTS CELL KILL DATA (% INHIBITION) Kato III” value is given as “A (A = 80-100% INHIBITION)”. The “MTS CELL KILL DATA (% INHIBITION) PC-3” value in the experiment on PC-3 is recorded as “A (A = 80-100% INHIBITION)”.
On to `O=C1c2cnc3[nH]ncc3c2C(=O)N1Cc1c(F)ccc(Cl)c1F` [Example 34, 7-(3-chloro-2,6-difluorobenzyl)pyrazolo[3,4-b]pyrrolo[3,4-d]pyridine-6,8(3H,7H)-dione], for which the “MTS CELL KILL DATA (% INHIBITION) MDA-MB” value with MDA-MB is reported as “A (A = 80-100% INHIBITION)”. Besides, the “MTS CELL KILL DATA (% INHIBITION) NCI-H1299” value in the experiment on NCI-H1299 is given as “A (A = 80-100% INHIBITION)”. The “MTS CELL KILL DATA (% INHIBITION) PACA-2” value with PACA-2 was “A (A = 80-100% INHIBITION)”. Besides, the “MTS CELL KILL DATA (% INHIBITION) DLD-1” value in the experiment on DLD-1 is given as “A (A = 80-100% INHIBITION)”. In the experiment with Kato III, the “MTS CELL KILL DATA (% INHIBITION) Kato III” value is listed as “A (A = 80-100% INHIBITION)”. Moreover, in the experiment on PC-3, the “MTS CELL KILL DATA (% INHIBITION) PC-3” value is reported as “A (A = 80-100% INHIBITION)”.
As for `C[C@@H](CN1C(=O)c2cnc3[nH]ncc3c2C1=O)c1ccccc1` [Example 82, 7-[(2R)-2-phenylpropyl]pyrazolo[3,4-b]pyrrolo[3,4-d]pyridine-6,8(3H,7H)-dione], the “MTS CELL KILL DATA (% INHIBITION) MDA-MB” value in the experiment on MDA-MB is “A (A = 80-100% INHIBITION)”. Besides, the “MTS CELL KILL DATA (% INHIBITION) NCI-H1299” value in the experiment on NCI-H1299 is given as “C (C = <50% INHIBITION)”. In addition, the “MTS CELL KILL DATA (% INHIBITION) PACA-2” value in the experiment with PACA-2 is reported as “C (C = <50% INHIBITION)”. In addition, the “MTS CELL KILL DATA (% INHIBITION) DLD-1” value in the experiment with DLD-1 is given as “C (C = <50% INHIBITION)”. The “MTS CELL KILL DATA (% INHIBITION) Kato III” value in the experiment on Kato III is “C (C = <50% INHIBITION)”. Further, in the experiment on PC-3, the “MTS CELL KILL DATA (% INHIBITION) PC-3” value is “A (A = 80-100% INHIBITION)”.
On to `O=C1c2cnc3[nH]ncc3c2C(=O)N1CC1CCOC1` (stereo not drawn) [Example 85, 7-(tetrahydrofuran-3-ylmethyl)pyrazolo[3,4-b]pyrrolo[3,4-d]pyridine-6,8(3H,7H)-dione], for which, in the experiment with MDA-MB, the “MTS CELL KILL DATA (% INHIBITION) MDA-MB” value is reported as “C (C = <50% INHIBITION)”. Also, the “MTS CELL KILL DATA (% INHIBITION) NCI-H1299” value with NCI-H1299 is recorded as “C (C = <50% INHIBITION)”. Further, the “MTS CELL KILL DATA (% INHIBITION) PACA-2” value in the experiment on PACA-2 is reported as “C (C = <50% INHIBITION)”. In the experiment with DLD-1, the “MTS CELL KILL DATA (% INHIBITION) DLD-1” value is “C (C = <50% INHIBITION)”. Moreover, the “MTS CELL KILL DATA (% INHIBITION) Kato III” value in the experiment with Kato III is listed as “C (C = <50% INHIBITION)”. Also, in the experiment on PC-3, the “MTS CELL KILL DATA (% INHIBITION) PC-3” value is “C (C = <50% INHIBITION)”.
Turning to `COc1ccc(CN2C(=O)c3cnc4[nH]ncc4c3C2=O)c(Cl)c1` [Example 109, 7-(2-chloro-4-methoxybenzyl)pyrazolo[3,4-b]pyrrolo[3,4-d]pyridine-6,8(3H,7H)-dione], in the experiment on MDA-MB, the “MTS CELL KILL DATA (% INHIBITION) MDA-MB” value is given as “A (A = 80-100% INHIBITION)”. In addition, in the experiment on NCI-H1299, the “MTS CELL KILL DATA (% INHIBITION) NCI-H1299” value is on record as “A (A = 80-100% INHIBITION)”. For the same compound, the “MTS CELL KILL DATA (% INHIBITION) PACA-2” value with PACA-2 is reported as “A (A = 80-100% INHIBITION)”. In the experiment on DLD-1, the “MTS CELL KILL DATA (% INHIBITION) DLD-1” value is “A (A = 80-100% INHIBITION)”. For the same compound, the “MTS CELL KILL DATA (% INHIBITION) Kato III” value in the experiment with Kato III is recorded as “A (A = 80-100% INHIBITION)”. For the same compound, the “MTS CELL KILL DATA (% INHIBITION) PC-3” value with PC-3 is “A (A = 80-100% INHIBITION)”.
On to `O=C1c2cnc3[nH]ncc3c2C(=O)N1Cc1ccccc1Br` [Example 99, 7-(2-bromobenzyl)pyrazolo[3,4-b]pyrrolo[3,4-d]pyridine-6,8(3H,7H)-dione], for which, in the experiment with MDA-MB, the “MTS CELL KILL DATA (% INHIBITION) MDA-MB” value was “C (C = <50% INHIBITION)”. In addition, in the experiment on NCI-H1299, the “MTS CELL KILL DATA (% INHIBITION) NCI-H1299” value is given as “C (C = <50% INHIBITION)”. Also, the “MTS CELL KILL DATA (% INHIBITION) PACA-2” value with PACA-2 is reported as “C (C = <50% INHIBITION)”. Moreover, the “MTS CELL KILL DATA (% INHIBITION) DLD-1” value with DLD-1 is reported as “C (C = <50% INHIBITION)”. Further, in the experiment with Kato III, the “MTS CELL KILL DATA (% INHIBITION) Kato III” value was “C (C = <50% INHIBITION)”. Besides, the “MTS CELL KILL DATA (% INHIBITION) PC-3” value with PC-3 was “C (C = <50% INHIBITION)”.
In the case of `COc1cc(Cl)ccc1CN1C(=O)c2cnc3[nH]ncc3c2C1=O` [Example 33, 7-(4-chloro-2-methoxybenzyl)pyrazolo[3,4-b]pyrrolo[3,4-d]pyridine-6,8(3H,7H)-dione], the “MTS CELL KILL DATA (% INHIBITION) MDA-MB” value in the experiment with MDA-MB was “A (A = 80-100% INHIBITION)”. Also, the “MTS CELL KILL DATA (% INHIBITION) NCI-H1299” value in the experiment with NCI-H1299 is listed as “C (C = <50% INHIBITION)”. Besides, the “MTS CELL KILL DATA (% INHIBITION) PACA-2” value with PACA-2 is “C (C = <50% INHIBITION)”. Also, the “MTS CELL KILL DATA (% INHIBITION) DLD-1” value with DLD-1 is “C (C = <50% INHIBITION)”. Besides, in the experiment with Kato III, the “MTS CELL KILL DATA (% INHIBITION) Kato III” value is “C (C = <50% INHIBITION)”. In addition, the “MTS CELL KILL DATA (% INHIBITION) PC-3” value in the experiment with PC-3 was “C (C = <50% INHIBITION)”.
